The target of assay [1] is T1, Full length human recombinant HDAC6 (Homo sapiens, UniProt Q9UBN7).
T1 construct: Full length human recombinant HDAC6 and HDAC11 proteins were expressed in baculoviral system
T1 sequence (Q9UBN7 1-1215): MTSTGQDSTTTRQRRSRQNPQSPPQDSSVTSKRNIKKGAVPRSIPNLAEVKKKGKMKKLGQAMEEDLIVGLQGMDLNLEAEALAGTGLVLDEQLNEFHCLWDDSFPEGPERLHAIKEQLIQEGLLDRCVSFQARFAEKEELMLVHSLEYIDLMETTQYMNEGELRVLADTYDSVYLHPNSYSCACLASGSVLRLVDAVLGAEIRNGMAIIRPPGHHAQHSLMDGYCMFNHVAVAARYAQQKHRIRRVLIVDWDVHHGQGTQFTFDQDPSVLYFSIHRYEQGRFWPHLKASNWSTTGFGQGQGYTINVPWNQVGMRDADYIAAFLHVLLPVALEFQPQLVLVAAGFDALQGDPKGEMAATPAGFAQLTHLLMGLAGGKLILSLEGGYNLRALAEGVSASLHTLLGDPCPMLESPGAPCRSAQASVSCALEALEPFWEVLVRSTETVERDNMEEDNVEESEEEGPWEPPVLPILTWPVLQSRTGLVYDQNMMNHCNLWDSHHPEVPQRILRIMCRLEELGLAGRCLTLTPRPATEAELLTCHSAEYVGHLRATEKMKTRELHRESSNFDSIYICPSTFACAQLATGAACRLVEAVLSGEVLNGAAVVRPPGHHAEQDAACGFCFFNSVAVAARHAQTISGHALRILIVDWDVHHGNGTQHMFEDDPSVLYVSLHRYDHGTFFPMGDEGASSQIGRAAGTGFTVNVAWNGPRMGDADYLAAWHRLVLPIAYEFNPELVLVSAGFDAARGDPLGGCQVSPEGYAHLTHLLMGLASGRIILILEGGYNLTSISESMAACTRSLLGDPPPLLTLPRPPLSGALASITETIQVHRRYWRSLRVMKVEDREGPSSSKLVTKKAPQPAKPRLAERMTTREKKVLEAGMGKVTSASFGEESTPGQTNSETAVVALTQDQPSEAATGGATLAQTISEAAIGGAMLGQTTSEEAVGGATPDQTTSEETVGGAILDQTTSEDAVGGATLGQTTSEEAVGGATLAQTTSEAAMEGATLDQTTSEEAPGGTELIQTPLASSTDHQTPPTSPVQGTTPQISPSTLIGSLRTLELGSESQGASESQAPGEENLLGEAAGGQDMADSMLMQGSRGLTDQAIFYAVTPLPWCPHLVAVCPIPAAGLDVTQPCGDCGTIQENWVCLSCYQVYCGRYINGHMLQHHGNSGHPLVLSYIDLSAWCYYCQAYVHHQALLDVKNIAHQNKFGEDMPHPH
The assay can be described thus: In vitro histone deacetylase assay, enzymatic HDAC6 (electrophoretic mobility shift assay). The class given is biochemical. Conditions: 1 nM HDAC6; 2 μM peptide substrate FAM-RHKK(Ac)—NH2; 25° C.; 12 concentrations; read-out: HDAC6 Activity Range (IC50). In a few lines:
(§1)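 Baculovirus-expressed full-length enzymes (HDAC6 1 nM, FAM-RHKK(Ac)-NH2; HDAC11 10 nM, FAM-RHKK(tri-fluor-Ac)-NH2), 2 μM substrate, HEPES pH 7.5, 25°C, 12-point 3× dilutions. Product/substrate separated by microfluidic mobility shift after SDS quench; IC50 from 4-parameter fit, reported as +/++/+++ bins.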
For orientation: In EMSA bound probe runs differently from free probe, usually more slowly.

In assay [2] the target is T2, Full length human recombinant HDAC11 (Homo sapiens, UniProt Q96DB2).
T2 construct: Full length human recombinant HDAC6 and HDAC11 proteins were expressed in baculoviral system
T2 sequence (Q96DB2 1-347): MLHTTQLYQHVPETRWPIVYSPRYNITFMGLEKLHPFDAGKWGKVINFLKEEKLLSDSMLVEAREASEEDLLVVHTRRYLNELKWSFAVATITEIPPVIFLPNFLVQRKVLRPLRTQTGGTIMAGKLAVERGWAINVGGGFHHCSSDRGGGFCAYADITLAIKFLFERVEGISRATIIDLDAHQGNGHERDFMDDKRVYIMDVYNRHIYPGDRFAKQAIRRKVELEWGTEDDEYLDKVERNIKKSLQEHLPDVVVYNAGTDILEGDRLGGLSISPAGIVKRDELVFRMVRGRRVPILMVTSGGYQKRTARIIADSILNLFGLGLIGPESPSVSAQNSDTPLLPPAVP
The assay can be described thus: In vitro histone deacetylase assay, enzymatic HDAC11 (electrophoretic mobility shift assay). In kind it is biochemical. Conditions: 10 nM HDAC11; 2 μM peptide substrate FAM-RHKK(tri-fluor-Ac)—NH2; 25° C.; 12 concentrations; read-out: HDAC11 Activity Range (IC50). In a few lines:
as §1

Where only a bound is given, the exact number is not on record here.

As for `COCCn1c(N2CC[C@]3(CCc4ccc(C(=O)NO)cc4C3)C2=O)nc2ccccc21` [Compound I-34, (R)—N-hydroxy-1′-(1-(2-methoxyethyl)-1H-benzo[d]imidazol-2-yl)-2′-oxo-3,4-dihydro-1H-spiro[naphthalene-2,3′-pyrrolidine]-7-carboxamide], the IC50 in assay [1] and in assay [2] was no more than 100 nM each time.

Regarding `CC(C)CCN1CC[C@@]2(CCc3ccc(C(=O)NO)cc3C2)C1=O` [Compound I-54, (S)—N-hydroxy-1′-isopentyl-2′-oxo-3,4-dihydro-1H-spiro[naphthalene-2,3′-pyrrolidine]-7-carboxamide], the IC50 in assay [1] is no more than 100 nM; in assay [2], greater than 500 nM.

Consider `O=C(NO)c1ccc2c(c1)C[C@]1(CC2)CCN(Cc2ccccn2)C1=O` [Compound I-98, (R)—N-hydroxy-2′-oxo-1′-(pyridin-2-ylmethyl)-3,4-dihydro-1H-spiro[naphthalene-2,3′-pyrrolidine]-7-carboxamide], for which the IC50 in assay [1] was no more than 100 nM; in assay [2], greater than 500 nM.

In the case of `CN(C)CCc1ccc(N2CC[C@@]3(CCc4ccc(C(=O)NO)cc4C3)C2=O)cc1` [Compound I-119, (S)-1′-(4-(2-(dimethylamino)ethyl)phenyl)-N-hydroxy-2′-oxo-3,4-dihydro-1H-spiro[naphthalene-2,3′-pyrrolidine]-7-carboxamide], the IC50 was no more than 100 nM in assay [1] and greater than 500 nM in assay [2].

`O=C(NO)c1ccc2c(c1)CC1(CC2)CCN(C(=O)C2CCCCC2)C1` (stereo not drawn) [Compound I-4, 1′-(cyclohexanecarbonyl)-N-hydroxy-3,4-dihydro-1H-spiro[naphthalene-2,3′-pyrrolidine]-7-carboxamide]: the IC50 was no more than 100 nM in assay [1] and greater than 500 nM in assay [2].

On to `O=C(NO)c1ccc2c(c1)C[C@@]1(CC2)CCN(Cc2cnc(O)s2)C1=O` [Compound I-50, (S)—N-hydroxy-1′-((2-hydroxythiazol-5-yl)methyl)-2′-oxo-3,4-dihydro-1H-spiro[naphthalene-2,3′-pyrrolidine]-7-carboxamide], for which the IC50 in assay [1] was no more than 100 nM; in assay [2] it was greater than 500 nM.

Regarding `O=C(NO)c1ccc2c(c1)C[C@]1(CC2)CCN(Cc2ccc(F)cc2)C1=O` [Compound I-42, (R)-1′-(4-fluorobenzyl)-N-hydroxy-2′-oxo-3,4-dihydro-1H-spiro[naphthalene-2,3′-pyrrolidine]-7-carboxamide], the IC50 in assay [1] and in assay [2] was no more than 100 nM in each case.

Consider `O=C(NO)c1ccc2c(c1)C[C@@]1(CC2)CCN(Cc2ccccc2Cl)C1=O` [Compound I-61, (S)-1′-(2-chlorobenzyl)-N-hydroxy-2′-oxo-3,4-dihydro-1H-spiro[naphthalene-2,3′-pyrrolidine]-7-carboxamide], for which the IC50 was no more than 100 nM in assay [1] and greater than 500 nM in assay [2].

Regarding `O=C(NO)c1ccc2c(c1)CC1(CC2)CCN(CC2CCCCC2)C1=O` (stereo not drawn) [Compound I-23, 1′-(cyclohexylmethyl)-N-hydroxy-2′-oxo-3,4-dihydro-1H-spiro[naphthalene-2,3′-pyrrolidine]-7-carboxamide], the IC50 in assay [1] is no more than 100 nM; in assay [2] it was 100 to 500 nM.

As for `O=C(NO)c1ccc2c(c1)CC1(CC2)CCN(Cc2ccc(Cl)c(Cl)c2)C1=O` (stereo not drawn) [Compound I-21, 1′-(3,4-dichlorobenzyl)-N-hydroxy-2′-oxo-3,4-dihydro-1H-spiro[naphthalene-2,3′-pyrrolidine]-7-carboxamide], the IC50 in assay [1] and in assay [2] was no more than 100 nM in each case.

`COc1ccc(S(=O)(=O)N2CCC3(CCc4ccc(C(=O)NO)cc4O3)CC2)cc1` [II-2, N-hydroxy-1′-((4-methoxyphenyl)sulfonyl)spiro[chromane-2,4′-piperidine]-7-carboxamide]: the IC50 in assay [1] was no more than 100 nM; in assay [2], greater than 500 nM.

As for `Cc1ccc(N2CC[C@@]3(CCc4ccc(C(=O)NO)cc4C3)C2=O)c(C)c1` [Compound I-113, (S)-1′-(2,4-dimethylphenyl)-N-hydroxy-2′-oxo-3,4-dihydro-H-spiro[naphthalene-2,3′-pyrrolidine]-7-carboxamide], the IC50 was no more than 100 nM in assay [1] and greater than 500 nM in assay [2].

With `CC(C)CCN1CC[C@]2(CCc3ccc(C(=O)NO)cc3C2)C1=O` [Compound I-82, (R)—N-hydroxy-1′-isopentyl-2′-oxo-3,4-dihydro-1H-spiro[naphthalene-2,3′-pyrrolidine]-7-carboxamide], the IC50 was no more than 100 nM in assay [1] and 100 to 500 nM in assay [2].

As to `COc1ccc(CN2CC[C@@]3(CCc4ccc(C(=O)NO)cc4C3)C2=O)cc1` [Compound I-75, (S)—N-hydroxy-1′-(4-methoxybenzyl)-2′-oxo-3,4-dihydro-1H-spiro[naphthalene-2,3′-pyrrolidine]-7-carboxamide], the values for the IC50 in assay [1] and in assay [2] were no more than 100 nM and greater than 500 nM, respectively.

With `O=CN1CCC2(CCc3ccc(C(=O)NO)cc3C2)C1` (stereo not drawn) [Compound I-10, 1′-formyl-N-hydroxy-3,4-dihydro-1H-spiro[naphthalene-2,3′-pyrrolidine]-7-carboxamide], the 50% inhibitory concentration (IC50) in assay [1] is no more than 100 nM; in assay [2], greater than 500 nM.

Take `COCCn1c(N2CC[C@@]3(CCc4ccc(C(=O)NO)cc4C3)C2=O)nc2ccccc21` [Compound I-33, (S)—N-hydroxy-1′-(1-(2-methoxyethyl)-1H-benzo[d]imidazol-2-yl)-2′-oxo-3,4-dihydro-1H-spiro[naphthalene-2,3′-pyrrolidine]-7-carboxamide]: the figures for the IC50 in assay [1] and in assay [2] were no more than 100 nM and greater than 500 nM, respectively.

With `O=C(NO)c1ccc2c(c1)C[C@]1(CC2)CCN(Cc2cccc(Cl)c2)C1=O` [Compound I-101, (R)-1′-(3-chlorobenzyl)-N-hydroxy-2′-oxo-3,4-dihydro-1H-spiro[naphthalene-2,3′-pyrrolidine]-7-carboxamide], the IC50 in assay [1] and in assay [2] was no more than 100 nM throughout.

Consider `O=C(NO)c1ccc2c(c1)C[C@]1(CCNC1=O)CC2` [Compound I-47, (S)—N-hydroxy-2′-oxo-3,4-dihydro-1H-spiro[naphthalene-2,3′-pyrrolidine]-7-carboxamide], for which the IC50 in assay [1] is no more than 100 nM; in assay [2], greater than 500 nM.

Consider `O=C(NO)c1ccc2c(c1)C[C@]1(CC2)CCN(Cc2ccc(OC(F)(F)F)cc2)C1=O` [Compound I-100, (R)—N-hydroxy-2′-oxo-1′-(4-(trifluoromethoxy)benzyl)-3,4-dihydro-1H-spiro[naphthalene-2,3′-pyrrolidine]-7-carboxamide], for which the IC50 in assay [1] and in assay [2] was no more than 100 nM in each case.

As for `COc1ccc(CN2CCC3(CCc4ccc(C(=O)NO)cc4O3)CC2)cc1` [II-7, N-hydroxy-1′-(4-methoxybenzyl)spiro[chromane-2,4′-piperidine]-7-carboxamide], the IC50 in assay [1] and in assay [2] was greater than 500 nM in each case.

Regarding `COCCn1c(CN2CC[C@]3(CCc4ccc(C(=O)NO)cc4C3)C2=O)nc2ccccc21` [Compound I-46, (R)—N-hydroxy-1′-((1-(2-methoxyethyl)-1H-benzo[d]imidazol-2-yl)methyl)-2′-oxo-3,4-dihydro-1H-spiro[naphthalene-2,3′-pyrrolidine]-7-carboxamide], the IC50 in assay [1] was no more than 100 nM; in assay [2], 100 to 500 nM.

As usually defined, the IC50 is the concentration needed to halve the response being measured.

These data come from US9637453B2, “3-spirocyclic-6-hydroxamic acid tetralins as HDAC inhibitors” (Forma Therapeutics, Inc., priority 2015, dated 2017).
